Reference: patent US8252793B2, “Bradykinin receptor agonists and uses thereof to treat ocular hypertension and glaucoma” (Alcon Research, Ltd., priority 2010, dated 2012)

Legend:
[1] = target: T1, recombinant human bradykinin B2 receptor (Homo sapiens, UniProt P30411); assay: [3H]-BK competition radioligand binding to human cloned B2 receptor (CHO cell membranes); conditions: 0.2 nM [3H]-bradykinin, CHO membranes, 60 min 23° C.; mean ± SEM or single value; Ki from IC50 by Cheng-Prusoff; read-out: [3H]-BK Binding to Human Cloned B2 Receptor (Ki)
T1 construct: expressed in transfected cells; host or cells: Chinese hamster ovary (CHO) cells, membrane homogenates
T1 sequence (P30411 1-391): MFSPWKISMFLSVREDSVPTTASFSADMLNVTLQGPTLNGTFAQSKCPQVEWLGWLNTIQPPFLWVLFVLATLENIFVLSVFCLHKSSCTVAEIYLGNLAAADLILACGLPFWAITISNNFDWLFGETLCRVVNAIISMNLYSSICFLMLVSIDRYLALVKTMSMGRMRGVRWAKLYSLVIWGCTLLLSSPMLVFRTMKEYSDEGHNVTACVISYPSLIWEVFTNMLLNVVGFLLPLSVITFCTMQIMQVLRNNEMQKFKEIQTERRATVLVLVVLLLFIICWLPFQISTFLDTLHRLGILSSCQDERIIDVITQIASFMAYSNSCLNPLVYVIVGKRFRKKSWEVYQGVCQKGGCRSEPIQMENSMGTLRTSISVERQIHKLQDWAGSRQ

[2] = target: T2, BK receptors in human ciliary muscle cells (h-CM) (Homo sapiens, UniProt P30411); assay: Functional assay measuring [Ca2+]i mobilization (FLIPR) in h-CM cells; type: cell-based; conditions: class symbols (in μM), read-out: CaM (EC50)
T2 construct: h-CM cells expressing BK receptors were seeded; endogenous in cells; host or cells: human ciliary muscle (h-CM) cells
T2 sequence (P30411 1-391): T1 sequence (P30411 1-391)
Outline: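 Human ciliary muscle cells loaded 1 h at 23 °C with FLIPR calcium dye in HBSS, 20 mM HEPES, 2.5 mM probenecid, pH 7.4. EC50 by 4-parameter fit.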

[3] = tested on: primary human ciliary muscle cells (h-CM); assay: Total prostaglandin (PG) release from primary h-CM cells (EIA); type: cell-based; conditions: Homo sapiens, 1 h, 1 hour at 37° C., class symbols (in μM)
Outline: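 Confluent primary h-CM cells, serum-starved (0.8% FBS) 24 h, were exposed to a 9-point concentration series (0.1 nM-10 μM) of bradykinin or BK agonist for 1 hour at 37° C. Total PG released was then quantified by EIA.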

SMILES	Ki [1]	EC50 [2]	EC50 [3]
CNC(=O)c1ccc(CCC(=O)NCC(=O)N(C)c2ccc(Cl)c(COc3cccc4c(OCc5ccccn5)cc(C)nc34)c2Cl)cn1 [Compound 27, 5-(3-((2-((2,4-dichloro-3-(((2-methyl-4-(pyridin-2-ylmethoxy)quinolin-8-yl)oxy)methyl)phenyl)(methyl)amino)-2-oxoethyl)amino)-3-oxopropyl)-N-methylpicolinamide]	11 nM	0.1 to 1 µM	0.1 to 1 µM
CC(=O)Nc1ccc(CCC(=O)NCC(=O)N(C)c2ccc(Cl)c(COc3cccc4c(OCc5ccccn5)cc(C)nc34)c2Cl)cc1 [Compound 28, 3-(4-acetamidophenyl)-N-(2-((2,4-dichloro-3-(((2-methyl-4-(pyridin-2-ylmethoxy)quinolin-8-yl)oxy)methyl)phenyl)(methyl)amino)-2-oxoethyl)propanamide]	3 nM	0.1 to 1 µM	< 0.1 µM
Cc1cc(OCc2ccccn2)c2cccc(OCc3c(Cl)ccc(N(C)C(=O)CNC(=O)CCc4ccc(NS(C)(=O)=O)cc4)c3Cl)c2n1 [Compound 29, N-(2-((2,4-dichloro-3-(((2-methyl-4-(pyridin-2-ylmethoxy)quinolin-8-yl)oxy)methyl)phenyl)(methyl)amino)-2-oxoethyl)-3-(4-(methylsulfonamido)phenyl)propanamide]	8 ± 3 nM	0.1 to 1 µM	> 1 µM
CNC(=O)c1ccc(CCC(=O)NCC(=O)N(C)c2ccc(Cl)c(COc3cccc4c(OCc5ccccn5)cc(C)nc34)c2Cl)cc1 [Compound 30]	3 nM	0.1 to 1 µM	0.1 to 1 µM
COc1nc2c(OCc3c(Cl)ccc(N(C)C(=O)CNC(=O)CCc4ccc(NC(C)=O)nc4)c3Cl)cccc2n1Cc1ccccn1 [Compound 32, 3-(6-acetamidopyridin-3-yl)-N-(2-((2,4-dichloro-3-(((2-methoxy-1-(pyridin-2-ylmethyl)-1H-benzo[d]imidazol-4-yl)oxy)methyl)phenyl)(methyl)amino)-2-oxoethyl)propanamide]	25 ± 8 nM	< 0.1 µM	< 0.1 µM
CNC(=O)c1ccc(CCC(=O)NCC(=O)N(C)c2ccc(Cl)c(COc3cccc4c3nc(OC)n4Cc3ccccn3)c2Cl)cc1 [Compound 33, 4-(3-((2-((2,4-dichloro-3-(((2-methoxy-1-(pyridin-2-ylmethyl)-1H-benzo[d]imidazol-4-yl)oxy)methyl)phenyl)(methyl)amino)-2-oxoethyl)amino)-3-oxopropyl)-N-methylbenzamide]	7 ± 1 nM	< 0.1 µM	< 0.1 µM
COc1nc2c(OCc3c(Cl)ccc(N(C)C(=O)CNC(=O)[C@H]4CCN(C(=O)OC(C)(C)C)C4)c3Cl)cccc2n1Cc1ccccn1 [Compound 34, (S)-tert-butyl 3-(2-((2,4-dichloro-3-((2-methoxy-1-(pyridin-2-ylmethyl)-1H-benzo[d]imidazol-4-yloxy)methyl)phenyl)(methyl)amino)-2-oxoethylcarbamoyl)pyrrolidine-1-carboxylate]	77 nM	< 0.1 µM	< 0.1 µM
CNC(=O)C1CCCN(CC(=O)NCC(=O)N(C)c2ccc(Cl)c(COc3cccc4c3nc(OC)n4Cc3ccccn3)c2Cl)C1 (stereo not drawn) [Compound 35, 1-(2-(2-((2,4-dichloro-3-((2-methoxy-1-(pyridin-2-ylmethyl)-1H-benzo[d]imidazol-4-yloxy)methyl)phenyl)(methyl)amino)-2-oxoethylamino)-2-oxoethyl)-N-methylpiperidine-3-carboxamide]	396 nM	< 0.1 µM	0.1 to 1 µM
CNC(=O)[C@H]1CCCN(CC(=O)NCC(=O)N(C)c2ccc(Cl)c(COc3cccc4c3nc(OC)n4Cc3ccccn3)c2Cl)C1 [Compound 36, (S)-1-(2-(2-((2,4-dichloro-3-((2-methoxy-1-(pyridin-2-ylmethyl)-1H-benzo[d]imidazol-4-yloxy)methyl)phenyl)(methyl)amino)-2-oxoethylamino)-2-oxoethyl)-N-methylpiperidine-3-carboxamide]	220 nM	< 0.1 µM	0.1 to 1 µM
COC(=O)c1ccc(CCC(=O)NCC(=O)N(C)c2ccc(Cl)c(COc3cccc4c3nc(OC)n4Cc3ccccn3)c2Cl)cc1 [Compound 37, methyl 4-(3-(2-((2,4-dichloro-3-((2-methoxy-1-(pyridin-2-ylmethyl)-1H-benzo[d]imidazol-4-yloxy)methyl)phenyl)(methyl)amino)-2-oxoethylamino)-3-oxopropyl)benzoate]	55.2 nM	< 0.1 µM	< 0.1 µM
CNC(=O)[C@H]1CC[C@H](CCC(=O)NCC(=O)N(C)c2ccc(Cl)c(COc3cccc4c3nc(OC)n4Cc3ccccn3)c2Cl)CN1 [Compound 38, (2R,5R)-5-(3-((2-((2,4-dichloro-3-(((2-methoxy-1-(pyridin-2-ylmethyl)-1H-benzo[d]imidazol-4-yl)oxy)methyl)phenyl)(methyl)amino)-2-oxoethyl)amino)-3-oxopropyl)-N-methylpiperidine-2-carboxamide]	332 nM	< 0.1 µM	< 0.1 µM
CNC(=O)[C@@H]1CC[C@H](CCC(=O)NCC(=O)N(C)c2ccc(Cl)c(COc3cccc4c3nc(OC)n4Cc3ccccn3)c2Cl)CN1 [Compound 39, (2S,5R)-5-(3-((2-((2,4-dichloro-3-(((2-methoxy-1-(pyridin-2-ylmethyl)-1H-benzo[d]imidazol-4-yl)oxy)methyl)phenyl)(methyl)amino)-2-oxoethyl)amino)-3-oxopropyl)-N-methylpiperidine-2-carboxamide]	514 nM	0.1 to 1 µM	0.1 to 1 µM
CNC(=O)N1CCN(CC(F)(F)C(=O)NCC(=O)N(C)c2ccc(Cl)c(COc3cccc4c3nc(OC)n4Cc3ccccn3)c2Cl)CC1 [Compound 40, 4-(3-((2-((2,4-dichloro-3-(((2-methoxy-1-(pyridin-2-ylmethyl)-1H-benzo[d]imidazol-4-yl)oxy)methyl)phenyl)(methyl)amino)-2-oxoethyl)amino)-2,2-difluoro-3-oxopropyl)-N-methylpiperazine-1-carboxamide]	450 nM	< 0.1 µM	0.1 to 1 µM
CNC(=O)C1=NCC(CCC(=O)NCC(=O)N(C)c2ccc(Cl)c(COc3cccc4c3nc(OC)n4Cc3ccccn3)c2Cl)CN1 (stereo not drawn) [Compound 41, 5-(3-((2-((2,4-dichloro-3-(((2-methoxy-1-(pyridin-2-ylmethyl)-1H-benzo[d]imidazol-4-yl)oxy)methyl)phenyl)(methyl)amino)-2-oxoethyl)amino)-3-oxopropyl)-N-methyl-1,4,5,6-tetrahydropyrimidine-2-carboxamide]	300 nM	< 0.1 µM	0.1 to 1 µM
CNC(=O)c1ncc(CCC(=O)NCC(=O)N(C)c2ccc(Cl)c(COc3cccc4c3nc(OC)n4Cc3ccccn3)c2Cl)cn1 [Compound 42, 5-(3-((2-((2,4-dichloro-3-(((2-methoxy-1-(pyridin-2-ylmethyl)-1H-benzo[d]imidazol-4-yl)oxy)methyl)phenyl)(methyl)amino)-2-oxoethyl)amino)-3-oxopropyl)-N-methylpyrimidine-2-carboxamide]	194 nM	< 0.1 µM	0.1 to 1 µM
CNC(=O)C1CN(CC(=O)NCC(=O)N(C)c2ccc(Cl)c(COc3cccc4c3nc(OC)n4Cc3ccccn3)c2Cl)CCO1 (stereo not drawn) [Compound 44, 4-(2-((2-((2,4-dichloro-3-(((2-methoxy-1-(pyridin-2-ylmethyl)-1H-benzo[d]imidazol-4-yl)oxy)methyl)phenyl)(methyl)amino)-2-oxoethyl)amino)-2-oxoethyl)-N-methylmorpholine-2-carboxamide]	102 nM	< 0.1 µM	< 0.1 µM
CNC(=O)[C@@H]1CN(CC(=O)NCC(=O)N(C)c2ccc(Cl)c(COc3cccc4c3nc(OC)n4Cc3ccccn3)c2Cl)CCO1 [Compound 45, (S)-4-(2-((2-((2,4-dichloro-3-(((2-methoxy-1-(pyridin-2-ylmethyl)-1H-benzo[d]imidazol-4-yl)oxy)methyl)phenyl)(methyl)amino)-2-oxoethyl)amino)-2-oxoethyl)-N-methylmorpholine-2-carboxamide]	40 nM	< 0.1 µM	< 0.1 µM
CNC(=O)c1ccc(CCC(=O)NCC(=O)N(C)c2ccc(C)c(COc3cccc4c3nc(OC)n4Cc3ccccn3)c2C)cc1 [Compound 56, 4-(3-((2-((3-(((2-methoxy-1-(pyridin-2-ylmethyl)-1H-benzo[d]imidazol-4-yl)oxy)methyl)-2,4-dimethylphenyl)(methyl)amino)-2-oxoethyl)amino)-3-oxopropyl)-N-methylbenzamide]	42 nM	< 0.1 µM	< 0.1 µM
CCc1nc2c(OCc3c(Cl)ccc(N(C)C(=O)CNC(=O)CCc4ccc(NC(C)=O)nc4)c3Cl)cccn2c1C(O)c1ccccn1 (stereo not drawn) [Compound 57]	852 nM	0.1 to 1 µM	> 1 µM
